# Paper PMC6965176, “Targeting Forward and Reverse EphB4/EFNB2 Signaling by a Peptide with Dual Functions” (Scientific Reports, 2020)
# Non-standard residues stand in square brackets, D forms with d. No end group written: not given here.
# How the values were obtained:
# EphB4 = molecular target: T1, EphB4 (Homo sapiens, UniProt P54760); experiment: SPR (BIACore) binding of peptides to immobilized EphB4; conditions: rhEphB4-coated chips, 0.16-20 nM equivalent BIDEN-AP, duplicate, visual inspection; poor fitting to 1:1 or 1:2 models (Fig. 3B)
# T1 construct: purchased R&D Systems
# T1 sequence (P54760 16-987): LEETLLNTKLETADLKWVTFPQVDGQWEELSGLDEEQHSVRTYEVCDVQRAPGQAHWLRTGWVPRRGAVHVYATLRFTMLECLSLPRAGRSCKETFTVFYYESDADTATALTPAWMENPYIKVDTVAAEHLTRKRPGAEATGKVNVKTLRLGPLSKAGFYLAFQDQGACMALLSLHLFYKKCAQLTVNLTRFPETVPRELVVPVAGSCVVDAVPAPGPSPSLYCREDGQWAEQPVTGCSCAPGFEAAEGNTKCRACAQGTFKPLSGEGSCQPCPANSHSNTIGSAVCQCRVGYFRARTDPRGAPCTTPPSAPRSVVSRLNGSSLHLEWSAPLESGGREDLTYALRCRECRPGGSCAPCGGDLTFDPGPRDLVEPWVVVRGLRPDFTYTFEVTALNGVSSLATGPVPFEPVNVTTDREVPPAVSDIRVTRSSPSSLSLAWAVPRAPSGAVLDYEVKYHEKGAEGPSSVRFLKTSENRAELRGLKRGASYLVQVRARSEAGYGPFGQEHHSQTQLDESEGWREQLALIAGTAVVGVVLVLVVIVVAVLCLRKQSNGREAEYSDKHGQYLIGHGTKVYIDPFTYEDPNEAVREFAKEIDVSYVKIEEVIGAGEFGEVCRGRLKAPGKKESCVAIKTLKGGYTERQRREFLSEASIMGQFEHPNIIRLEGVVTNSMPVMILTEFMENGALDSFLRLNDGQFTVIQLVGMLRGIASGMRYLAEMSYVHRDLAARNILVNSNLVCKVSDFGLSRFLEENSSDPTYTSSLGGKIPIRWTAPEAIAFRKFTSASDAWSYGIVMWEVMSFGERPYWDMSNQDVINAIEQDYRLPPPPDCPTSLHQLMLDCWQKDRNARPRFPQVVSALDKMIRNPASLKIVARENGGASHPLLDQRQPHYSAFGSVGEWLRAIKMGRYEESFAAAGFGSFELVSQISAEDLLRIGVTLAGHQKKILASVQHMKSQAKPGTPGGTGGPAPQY
# Excerpt: Surface plasmon resonance (SPR) binding and competition assays.
# Immunoblotting, immunoprecipitation, and co-immunoprecipitation.
# RF24_Bev cells = experiment: Cell death in bevacizumab-resistant RF24 cells (SYTOX-green flow cytometry); assay type: cell-based; conditions: VEGF + Bev, SYTOX-negative live cells by flow cytometry (Fig. 4C,D)
# Method: Figure 4 BIDEN-AP–based agents inhibit tube formation and sensitize resistant endothelial cells to anti-VEGF antibody. (A,B) Tube formation by RF24 cells treated with EFNB2-Fc (2 nM) or BIDEN-AP (15 µM) compared to untreated controls (CTL). Representative data from three independent experiments are presented. (A) Representative microphotographs of tubes formed by RF24 cells are shown (n = 3). Images were taken at × 100 magnification. (B) Quantification of the number of nodes per field in three technical replicates. […] (C) Representative flow cytometry plots from three independent experiments of RF24_Bev cells are shown here. SYTOX-negative staining represents the live cell population.
# Given the important role of endothelium in adaptive changes with antiangiogenic therapy, we further tested the effects of BIDEN-AP in overcoming resistance to anti-VEGF therapy in RF24 endothelial cells. To do this, we first established a bevacizumab (Bev)-resistant RF24 cell line (RF24_Bev) selected though continuous Bev treatment at low dose ([…]) for 2 weeks. The RF24_Bev cells were maintained at a Bev concentration of […]. Using flow cytometry with SYTOX-green staining, we quantified the live (SYTOX-negative) vs. dead (SYTOX-positive) populations after treatment with BIDEN-AP or CCPM-BIDEN-AP.
# [1] = test system: orthotopic A2780cp20-Luc ovarian tumors; experiment: Orthotopic A2780cp20-Luc ovarian cancer model
# Method: (A) Schema for in vivo orthotopic A2789cp20-Luc model and treatment. Female nude mice were intraperitoneally inoculated with A2789cp20-Luc tumor cells. Beginning on day 7 after inoculation, each mouse received 10 intraperitoneal injections of BIDEN-AP or CCPM-BIDEN-AP (bold arrows) at a dose 13 mg/kg/injection every other day for a total of 10 doses. Tumor growth was monitored by bioluminescence imaging (IVIS). (B,C) Representative bioluminescence images on day 28 after tumor cell inoculation (B) and corresponding quantification of signal intensity (C) of mice bearing orthotopic A2780cp20-Luc tumors (n = 4). (D,E) Tumor weight (D) and number of tumor nodules (E) per treatment group (n = 8). (F) Images of tumor nodules from each treatment group. Data are expressed as mean ± SD. *p < 0.05, **p < 0.01, ****p < 0.0001 by Student t-test. CTL, untreated controls.
# Female athymic nude mice (NCr-nu) were obtained from Harlan Laboratories (Indianapolis, IN) at age 4 to 6 weeks and kept under sterile conditions. For all therapeutic experiments, groups of the mice were inoculated intraperitoneally with A2780cp20-Luc cells (1×10^6 cells/mouse). The mice were treated with BIDEN-AP or CCPM-BIDEN-AP at a dose of 13 mg equivalent drug/kg per injection for a total of 10 doses every other day starting on day 7 after tumor cell inoculation. Untreated mice were used as a control. On day 31, all mice were euthanized and necropsied, and their tumors were harvested. Tumor weight and number and location of tumor nodules were recorded. Tumor tissue was fixed in formalin for paraffin embedding, frozen in optimal cutting temperature medium for frozen slide preparation, or snap-frozen for lysate preparation.
# On day 7, day 14, day 21, and day 28 after tumor inoculation, mice received a tail vein injection of D-luciferin (4 mg/kg) and their tumor burden was assessed by luciferase activity using the Xenogen IVIS-200 imaging system (Perkin Elmer, Shelton, CT). The bioluminescence imaging signal generated in mice was quantified using Living Image V.2.11 software and IGOR image analysis software (V.4.02 A; WaveMetrics, Portland, OR). The region of interest was manually selected, and the signal intensity was expressed in terms of the number of photons/s/cm^2.
# incubated overnight at 4°C. After washing, the slides were incubated with Alexa488-conjugated goat anti-rabbit secondary antibody for 60 min. Slides were subjected to recombinant terminal
# deoxynucleotidyl transferase (rTdT)–mediated dUTP nick-end labeling (TUNEL) by using the
# DeadEnd Fluorometric TUNEL System assay kit (Promega) after CD31 staining by immersing
# slides in 4% formaldehyde in PBS for 15 min. A 20 µg/mL proteinase K solution (Promega) was
# added to each slide (100 µL per slide), and the slides were incubated at room temperature for 8-
# 10 min. Slides were washed twice with PBS, 100 µL equilibration buffer (Promega) was added to
# each, and the slides were again incubated for 5-10 min. The slides were then labeled by adding
# 50 µL of fluorescein-12-dUTP as a substrate, and the rTdT was added. Each slide was covered
# with a plastic coverslip to ensure even distribution of the labeling solution and incubated for 60
# min at 37°C in a humidified chamber. The reaction was stopped by immersing slides in 2x SSC
# solution (87.7g NaCl, 44.1g sodium citrate, pH 7.0, in 500 mL) for 15 min. After washing with PBS,
# [2] = Transmission electron microscopy particle size; assay type: physicochemical; conditions: transmission electron microscopy (Fig. 3C)
# Method: examined with a JEM 1010 transmission electron microscope (JEOL USA, Inc., Peabody, MA) at an accelerating voltage of 80 kV. Digital images were obtained using the AMT Imaging System (Advanced Microscopy Techniques Corp., Danvers, MA).
# Surface plasmon resonance (SPR) binding and competition assays. A stock solution of EphB4 in PBS (100 µg/mL) was diluted to 25 µg/mL with 10 mM sodium acetate buffer (pH 4.5) and immobilized to CM5 sensor chips using the amine coupling reaction according to manufacturer-provided procedures (BIACore). Briefly, the surfaces of the chips in flow cells (FC)- 1 and FC-2 were activated by exposing chips to a mixture of 200 mM N-ethyl-N’- dimethylaminopropyl carbodiimide and 50 mM N-hydroxysuccinimide for 7 min. FC-1 was used as a reference surface and was directly deactivated by injecting 1 M ethanolamine at pH 8.5 for 7 min. […]
# Binding assays were performed in duplicate at 25°C in HBSEP running buffer. […] Thus, all analyzed samples, including a sample of the running buffer, were additionally injected onto an uncoated reference surface. The association rate (Kon) and dissociation rate (Koff) were calculated by fitting binding chromatogram data using the BIACore evaluation software with a 1:1 Langmuir binding model. […]
substance,measurement,setting,value
CCPM-BIDEN-AP: nanoconjugate of BIDEN-AP with core-crosslinked polymeric micelles (CCPM) (TN[dY]LFSPNGPIARAW; also: conjugated to core-crosslinked polymeric micelles (CCPM)),binding avidity to immobilized EphB4 (SPR sensorgrams),EphB4,stronger binding avidity to EphB4 than the unconjugated BIDEN-AP peptide
same,re-sensitization of bevacizumab-resistant endothelial cells to Bev,RF24_Bev cells,re-sensitized these cells to Bev treatment
same,bioluminescence signal intensity of tumors,"[1]; day 28 after inoculation, 13 mg/kg/injection i.p. every other day, 10 doses from day 7, n = 4 (Fig. 5A-C)",significantly reduced the bioluminescence signal intensity
same,"metastatic nodules, comparison of the two agents","[1]; day 31, 13 mg/kg/injection i.p., 10 doses (Fig. 5E,F)",reduced metastatic nodules to a greater extent than BIDEN-AP
same,tumor growth in the peritoneum (tumor weight and number of metastatic nodules) versus controls,"[1]; day 31 after inoculation, 13 mg/kg/injection i.p., 10 doses, n = 8 (Fig. 5D)",significantly reduced tumor growth in the peritoneum
same,apoptotic cell death in CD31+ endothelial vasculature within tumor stroma,"[1]; excised A2780cp20 tumors, CD31/TUNEL co-staining, versus untreated control (Fig. 6A-C)",induced apoptotic cell death
same,angiogenesis in tumors (microvessel density),"[1]; excised A2780cp20 tumors, CD31 staining (Fig. 6A-C)",suppressed angiogenesis in tumors
same,tumor cell proliferation (Ki67-positive cells),"[1]; excised A2780cp20 tumors, Ki67 IHC (Fig. 6D,E)",significantly reduced tumor cell proliferation
same,EphB4 and Crk1 phosphorylation in vivo in tumors,"[1]; orthotopic A2780cp20 tumors of treated mice, IP/immunoblot (Fig. S7B)",induce EphB4 and Crk1 phosphorylation
same,mean diameter,[2],24 ± 3 nm
